Assay results as given in the supplement of paper PMC10627819.

Columns and labels:
S. aureus Newman [1] = experiment: fitness (endpoint OD595 vs no drug) (fraction); higher = more growth
Outline: (§1)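 Bacterial fitness was scored as optical density at the stationary-phase transition relative to the robust mean of no-drug control wells. Scores are capped at 1. The growth data were OD595 readings every 30 min for 14 h at 37 °C, background-subtracted against the first reading, from 384-well plates inoculated at OD595 0.01 in TSB, LB Lennox or CY.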

B. subtilis 168 [2] = experiment: as above
Outline: as §1

S. pneumoniae D39V [3] = experiment: as above
Outline: as §1

S. aureus DSM 20231 [4] = experiment: as above
Outline: as §1

S. aureus Newman [5] = experiment: Bliss interaction score (quartile over a dose matrix) (fitness difference); higher = more antagonism (negative = synergy)
Outline: (§2)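 Combination data were used to infer fitness under each single drug. Fitness is the OD595 at entry into stationary phase divided by the robust mean of the plate's no-drug wells, with a cap of 1. The Bliss score is the observed minus the expected product fitness, summarised by quartiles over technical, biological and donor/recipient replicates.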

B. subtilis 168 [6] = experiment: as above
Outline: as §2

S. pneumoniae D39V [7] = experiment: as above
Outline: as §2

S. aureus DSM 20231 [8] = experiment: as above
Outline: as §2
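For Bliss interaction score (quartile over a dose matrix) in this document: first quartile when negative (synergy) and third quartile when positive (antagonism).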

CO/N=C(\C(=O)N[C@@H]1C(=O)N2C(C(=O)O)=C(COC(C)=O)CS[C@H]12)c1csc(N)n1 [Cefotaxime] + COc1ccc(C[C@H](N)C(=O)N[C@H]2[C@@H](O)[C@H](n3cnc4c(N(C)C)ncnc43)O[C@@H]2CO)cc1 [Puromycin]
fitness, one replicate
Conditions | partner 0.39 µg/mL | partner 0.78 µg/mL | partner 1.56 µg/mL | partner 3.12 µg/mL | partner 6.24 µg/mL
B. subtilis 168 [2], first compound 0.00775 µg/mL | 0.887 | 0.903 | 0.816 | – | –
B. subtilis 168 [2], first compound 0.0155 µg/mL | 0.71 | 0.726 | 0.668 | – | –
B. subtilis 168 [2], first compound 0.031 µg/mL | 0.558 | 0.574 | 0.616 | – | –
S. aureus DSM 20231 [4], first compound 0.039 µg/mL | 0.811 | 0.79 | 0.806 | – | –
S. aureus DSM 20231 [4], first compound 0.078 µg/mL | – | – | – | 0.895 | 0.653
S. aureus DSM 20231 [4], first compound 0.156 µg/mL | – | – | – | 0.841 | 0.646
S. aureus DSM 20231 [4], first compound 0.312 µg/mL | – | – | – | 0.808 | 0.417
S. aureus Newman [1], first compound 0.039 µg/mL | 0.734 | 0.771 | 0.719 | – | –
S. aureus Newman [1], first compound 0.625 µg/mL | 0.0309 | 0.0612 | 0.0601 | – | –
S. aureus Newman [1], first compound 1.25 µg/mL | 0.0598 | 0.0843 | 0.0641 | – | –
S. aureus Newman [1], first compound 2.5 µg/mL | 0.0418 | 0.0601 | 0.0425 | – | –

fitness
Conditions | partner 0.39 µg/mL | partner 0.78 µg/mL | partner 1 µg/mL | partner 1.56 µg/mL | partner 2 µg/mL | partner 4 µg/mL
B. subtilis 168 [2], first compound 0.5 µg/mL | 0.267 | 0.284 | – | 0.312 | – | –
B. subtilis 168 [2], first compound 1 µg/mL | 0.144 | 0.147 | – | 0.169 | – | –
B. subtilis 168 [2], first compound 2 µg/mL | 0.113 | 0.125 | – | 0.147 | – | –
S. aureus DSM 20231 [4], first compound 0.078 µg/mL | 0.748 | 0.774 | – | 0.833 | – | –
S. aureus DSM 20231 [4], first compound 0.156 µg/mL | 0.72 | 0.781 | – | 0.796 | – | –
S. aureus DSM 20231 [4], first compound 0.312 µg/mL | 0.644 | 0.689 | – | 0.712 | – | –
S. aureus Newman [1], first compound 0.078 µg/mL | 0.739 | 0.729 | – | 0.782 | – | –
S. aureus Newman [1], first compound 0.156 µg/mL | 0.633 | 0.698 | – | 0.702 | – | –
S. aureus Newman [1], first compound 0.312 µg/mL | 0.408 | 0.456 | – | 0.437 | – | –
S. pneumoniae D39V [3], first compound 0.0018 µg/mL | – | – | 0.973 | – | ≥ 1 | 0.885
S. pneumoniae D39V [3], first compound 0.0035 µg/mL | – | – | 0.931 | – | 0.975 | 0.766
S. pneumoniae D39V [3], first compound 0.007 µg/mL | – | – | 0.93 | – | 0.919 | 0.662

Conditions | Bliss interaction score
B. subtilis 168 [6] | 0.104
S. aureus DSM 20231 [8] | 0.0471
S. aureus Newman [5] | 0.0762
S. pneumoniae D39V [7] | 0.11

CO/N=C(\C(=O)N[C@@H]1C(=O)N2C(C(=O)O)=C(COC(C)=O)CS[C@H]12)c1csc(N)n1 [Cefotaxime] + COc1cccc2c1C(=O)c1c(O)c3c(c(O)c1C2=O)C[C@@](O)(C(=O)CO)C[C@@H]3O[C@H]1C[C@H](N)[C@H](O)[C@H](C)O1 [Doxorubicin]
Conditions | fitness
B. subtilis 168 [2], first compound 0.5 µg/mL, partner 0.625 µg/mL | 0.183
B. subtilis 168 [2], first compound 0.5 µg/mL, partner 1.25 µg/mL | 0.16
B. subtilis 168 [2], first compound 0.5 µg/mL, partner 2.5 µg/mL | 0.0662
B. subtilis 168 [2], first compound 1 µg/mL, partner 0.625 µg/mL | 0.106
B. subtilis 168 [2], first compound 1 µg/mL, partner 1.25 µg/mL | 0.0654
B. subtilis 168 [2], first compound 1 µg/mL, partner 2.5 µg/mL | 0.0366
B. subtilis 168 [2], first compound 2 µg/mL, partner 0.625 µg/mL | 0.0861
B. subtilis 168 [2], first compound 2 µg/mL, partner 1.25 µg/mL | 0.0715
B. subtilis 168 [2], first compound 2 µg/mL, partner 2.5 µg/mL | 0.0755
S. aureus DSM 20231 [4], first compound 0.039 µg/mL, partner 0.625 µg/mL | 0.717
S. aureus DSM 20231 [4], first compound 0.039 µg/mL, partner 1.25 µg/mL | 0.707
S. aureus DSM 20231 [4], first compound 0.039 µg/mL, partner 2.5 µg/mL | 0.633
S. aureus DSM 20231 [4], first compound 0.078 µg/mL, partner 0.625 µg/mL | 0.67
S. aureus DSM 20231 [4], first compound 0.078 µg/mL, partner 1.25 µg/mL | 0.67
S. aureus DSM 20231 [4], first compound 0.078 µg/mL, partner 2.5 µg/mL | 0.589
S. aureus DSM 20231 [4], first compound 0.156 µg/mL, partner 0.625 µg/mL | 0.602
S. aureus DSM 20231 [4], first compound 0.156 µg/mL, partner 1.25 µg/mL | 0.613
S. aureus DSM 20231 [4], first compound 0.156 µg/mL, partner 2.5 µg/mL | 0.583
S. aureus DSM 20231 [4], first compound 0.312 µg/mL, partner 0.625 µg/mL | 0.537
S. aureus DSM 20231 [4], first compound 0.312 µg/mL, partner 1.25 µg/mL | 0.61
S. aureus DSM 20231 [4], first compound 0.312 µg/mL, partner 2.5 µg/mL | 0.572
S. aureus Newman [1], first compound 0.078 µg/mL, partner 0.625 µg/mL | 0.613
S. aureus Newman [1], first compound 0.078 µg/mL, partner 1.25 µg/mL | 0.68
S. aureus Newman [1], first compound 0.078 µg/mL, partner 2.5 µg/mL | 0.663
S. aureus Newman [1], first compound 0.156 µg/mL, partner 0.625 µg/mL | 0.563
S. aureus Newman [1], first compound 0.156 µg/mL, partner 1.25 µg/mL | 0.592
S. aureus Newman [1], first compound 0.156 µg/mL, partner 2.5 µg/mL | 0.618
S. aureus Newman [1], first compound 0.312 µg/mL, partner 0.625 µg/mL | 0.458
S. aureus Newman [1], first compound 0.312 µg/mL, partner 1.25 µg/mL | 0.45
S. aureus Newman [1], first compound 0.312 µg/mL, partner 2.5 µg/mL | 0.408
S. pneumoniae D39V [3], first compound 0.0018 µg/mL, partner 0.25 µg/mL | 0.944
S. pneumoniae D39V [3], first compound 0.0018 µg/mL, partner 0.5 µg/mL | 0.963
S. pneumoniae D39V [3], first compound 0.0018 µg/mL, partner 1 µg/mL | 0.863
S. pneumoniae D39V [3], first compound 0.0035 µg/mL, partner 0.25 µg/mL | 0.929
S. pneumoniae D39V [3], first compound 0.0035 µg/mL, partner 0.5 µg/mL | 0.944
S. pneumoniae D39V [3], first compound 0.0035 µg/mL, partner 1 µg/mL | 0.831
S. pneumoniae D39V [3], first compound 0.007 µg/mL, partner 1 µg/mL | 0.731

fitness, one replicate
Conditions | first compound 0.00775 µg/mL | first compound 0.0155 µg/mL | first compound 0.031 µg/mL | first compound 0.0625 µg/mL | first compound 0.125 µg/mL | first compound 0.25 µg/mL | first compound 0.625 µg/mL | first compound 1.25 µg/mL | first compound 2.5 µg/mL
B. subtilis 168 [2], partner 0.625 µg/mL | 0.844 | 0.659 | 0.476 | 0.382 | 0.227 | 0.187 | – | – | –
B. subtilis 168 [2], partner 1.25 µg/mL | 0.771 | 0.571 | 0.371 | 0.337 | 0.232 | 0.196 | – | – | –
B. subtilis 168 [2], partner 2.5 µg/mL | 0.35 | 0.0312 | 0.0055 | 0.0527 | 0.048 | 0.0308 | – | – | –
S. aureus Newman [1], partner 0.625 µg/mL | – | – | – | – | – | – | 0.0853 | 0.0304 | 0.0624
S. aureus Newman [1], partner 1.25 µg/mL | – | – | – | – | – | – | 0.0701 | 0.0126 | 0.0183
S. aureus Newman [1], partner 2.5 µg/mL | – | – | – | – | – | – | 0.0451 | 0 | 0.0123

Conditions | Bliss interaction score
B. subtilis 168 [6] | -0.17
S. aureus DSM 20231 [8] | -0.086
S. aureus Newman [5] | 0.0946
S. pneumoniae D39V [7] | 0.0436
